The values that follow come from ChEMBL document CHEMBL1629461, “The novel benzopyran class of selective cyclooxygenase-2 inhibitors. Part 2: the second clinical candidate having a shorter and favorable human half-life” (Bioorg Med Chem Lett, 2010).

The test system of data set [1] is Rattus norvegicus. As to the kind of experiment: Antiinflammatory activity in rat air pouch model assessed as inhibition of carrageenan-induced paw edema. Type of data set: functional.
For data set [2], the species on record is Rattus norvegicus. Kind of data set: Antiinflammatory activity in rat air pouch model assessed as inhibition of carrageenan-induced inflammatory hyperalgesia. Type of data set: functional.
Data set [3] is filed under the species Rattus norvegicus. Kind of data set: Antiarthritic activity in rat assessed as inhibition of adjuent-induced arthritic pain. Type of data set: functional.
For data set [4], the species on record is Rattus norvegicus. As to the kind of experiment: Antiinflammatory activity in rat air pouch model assessed as inhibition of carrageenan-induced PGE2 production. Type of data set: functional.
The next data set concerns Cynomolgus monkey. As to the kind of experiment: Half life in cynomolgus monkey. The following applies: in vivo. Type of data set: ADME, organism-based, Macaca fascicularis.
The next data set is filed under the species Homo sapiens. Kind of data set: (§1) Half life in human. Type of data set: ADME, organism-based. The note with it: in vivo.
Another data set has as its system Liver microsomes. As to the kind of experiment: Metabolic stability in human liver microsomes assessed as compound remaining. Type of data set: ADME, Microsome. (In general: Microsomes from liver hold many membrane-bound enzymes, among them those of drug oxidation.)
Data set [5] addresses T1, Prostaglandin G/H synthase 2 (Homo sapiens, UniProt P35354).
T1 sequence (P35354 whole entry): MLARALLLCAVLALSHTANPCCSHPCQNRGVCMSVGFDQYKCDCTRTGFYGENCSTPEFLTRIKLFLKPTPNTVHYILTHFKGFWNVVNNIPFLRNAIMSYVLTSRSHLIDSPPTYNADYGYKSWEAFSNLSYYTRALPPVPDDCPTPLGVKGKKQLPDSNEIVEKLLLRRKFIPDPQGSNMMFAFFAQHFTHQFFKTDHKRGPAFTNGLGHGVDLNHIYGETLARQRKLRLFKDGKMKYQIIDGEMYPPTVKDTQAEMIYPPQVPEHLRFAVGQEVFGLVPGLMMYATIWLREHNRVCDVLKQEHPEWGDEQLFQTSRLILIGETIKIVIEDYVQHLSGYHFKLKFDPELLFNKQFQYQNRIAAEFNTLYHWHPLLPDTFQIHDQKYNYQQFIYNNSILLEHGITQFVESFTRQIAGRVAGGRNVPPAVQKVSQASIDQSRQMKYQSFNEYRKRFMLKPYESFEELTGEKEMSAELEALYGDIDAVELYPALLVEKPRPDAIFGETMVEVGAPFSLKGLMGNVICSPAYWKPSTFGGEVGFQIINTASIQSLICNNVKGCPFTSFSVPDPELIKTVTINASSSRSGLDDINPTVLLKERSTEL

For data set [6], the species on record is Rattus norvegicus. Kind of data set: animal or person. The following applies: read-out: INH.
The target in data set [7] is Prostaglandin G/H synthase 1 (Homo sapiens, UniProt P23219).
Data set [8] in a line: Half life in rat. Type of data set: ADME, organism-based. The note with it: in vivo.
The nature of data set [9]: Half life in dog. Type of data set: ADME, organism-based, Canis lupus familiaris. The following applies: in vivo.
Data set [10] is described as follows: as §1. The note with it: in vivo. Type of data set: ADME, organism-based.
The species entered for data set [11] is Rattus norvegicus. Kind of data set: animal or person. The note with it: read-out: INH. This is another data set of the same source.

Prostaglandin G/H synthase 1, sequence (P23219 whole entry): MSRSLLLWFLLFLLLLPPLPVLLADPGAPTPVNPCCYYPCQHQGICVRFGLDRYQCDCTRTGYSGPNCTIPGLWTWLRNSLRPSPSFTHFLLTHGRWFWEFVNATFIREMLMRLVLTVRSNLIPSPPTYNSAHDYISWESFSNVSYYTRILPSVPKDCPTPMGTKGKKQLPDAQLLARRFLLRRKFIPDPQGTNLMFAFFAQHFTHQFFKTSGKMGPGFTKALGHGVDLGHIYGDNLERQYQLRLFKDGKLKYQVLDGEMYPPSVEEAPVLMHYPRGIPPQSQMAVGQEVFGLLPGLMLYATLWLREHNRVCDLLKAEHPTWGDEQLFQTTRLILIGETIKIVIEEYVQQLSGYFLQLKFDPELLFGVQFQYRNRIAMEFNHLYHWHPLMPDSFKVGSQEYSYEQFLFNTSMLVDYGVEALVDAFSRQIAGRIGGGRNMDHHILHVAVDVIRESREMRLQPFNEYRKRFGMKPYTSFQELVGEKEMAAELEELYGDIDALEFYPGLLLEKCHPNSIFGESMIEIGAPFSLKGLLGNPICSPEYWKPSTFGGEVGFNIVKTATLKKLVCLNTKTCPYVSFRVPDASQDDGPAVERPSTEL

By ED50 is commonly meant the midpoint of the dose-response relation. Take `O=C(O)C1=Cc2cc(Cl)cc(Cl)c2O[C@@H]1C(F)(F)F`: the ED50 in the data set with Rattus norvegicus [1] is 0.54 mg/kg; in the data set filed under Rattus norvegicus [2], 2.6 mg/kg; in the data set listed under Rattus norvegicus [3] it was 0.03 mg/kg; in the data set listed under Rattus norvegicus [4] it was 0.54 mg/kg. For the same compound, the t1/2 with Cynomolgus monkey stood at 14.2 h; in the data set listed under Homo sapiens, 360 h. Also, the Stability with Liver microsomes was 100%.

The term IC50 denotes the concentration needed to halve the response being measured. `CC(C)COc1c(Cl)cc2c(c1Cl)O[C@@H](C(F)(F)F)C(C(=O)O)=C2` returned a half-maximal inhibitory concentration (IC50) in data set [5] of less than 28 nM.

For the compound `CC(C)(C)c1cc2c(cc1Cl)C=C(C(=O)O)C(C(F)(F)F)O2` (configuration not stated), the Stability in the data set on Liver microsomes is listed as 51%. Besides, the inhibition in vivo at 10 mg/kg in the data set filed under Rattus norvegicus [6] is 100%.

With `CCCc1cc2c(cc1Cl)C=C(C(=O)O)C(C(F)(F)F)O2` (configuration not stated), the inhibition in vivo at 10 mg/kg in the data set filed under Rattus norvegicus [6] was found to be 49%.

In the case of `CC(C)CCc1cc2c(cc1Cl)C=C(C(=O)O)C(C(F)(F)F)O2` (configuration not stated), in the data set listed under Rattus norvegicus [6], the inhibition in vivo at 10 mg/kg turned out to be 51%.

As for `CC(C)CSc1cc2c(cc1Cl)C=C(C(=O)O)C(C(F)(F)F)O2` (configuration not stated), the inhibition in vivo at 10 mg/kg in the data set filed under Rattus norvegicus [6] is 30%.

Regarding `CC(C)CN(C)c1cc2c(cc1Cl)C=C(C(=O)O)C(C(F)(F)F)O2` (configuration not stated), the inhibition in vivo at 10 mg/kg in the data set filed under Rattus norvegicus [6] was 52%.

As for `CCC(CC)COc1cc2c(cc1Cl)C=C(C(=O)O)C(C(F)(F)F)O2` (configuration not stated), the inhibition in vivo at 10 mg/kg in the data set filed under Rattus norvegicus [6] turned out to be 42%.

As to `Nc1c(Cl)ccc2c1C=C(C(=O)O)C(C(F)(F)F)O2` (configuration not stated), the half-maximal inhibitory concentration (IC50) in data set [7] is greater than 100000 nM.

Regarding `CCOc1c(Cl)ccc2c1C=C(C(=O)O)C(C(F)(F)F)O2` (configuration not stated), the half-inhibitory concentration (IC50) in data set [7] and in [5] was greater than 100000 nM each time.

`O=C(O)C1=Cc2cc(Cl)c(OCC3CCCC3)c(Cl)c2OC1C(F)(F)F` (configuration not stated): the concentration for half-maximal inhibition (IC50) is less than 140 nM in data set [7] and less than 6 nM in data set [5].

Turning to `CCC(CC)COc1c(Cl)cc2c(c1Cl)OC(C(F)(F)F)C(C(=O)O)=C2` (configuration not stated), the IC50 in [5] was less than 21 nM.

`CC(C)(C)Oc1c(Cl)cc2c(c1Cl)OC(C(F)(F)F)C(C(=O)O)=C2` (configuration not stated): the concentration for half-maximal inhibition (IC50) is less than 140 nM in data set [7] and less than 28 nM in [5].

In turn, `O=C(O)C1=Cc2cc(Cl)c(OCC3CCCCC3)c(Cl)c2OC1C(F)(F)F` (configuration not stated) gave an IC50 in data set [5] of less than 34 nM.

One may read the half-life as how long it takes for the measured level to halve. `CC(C)(C)c1cc2c(cc1Cl)C=C(C(=O)O)[C@@H](C(F)(F)F)O2` [TIGEMOCOXIB]: the 50% effective dose (ED50) in the data set on Rattus norvegicus [1] came to 2.7 mg/kg; in the data set filed under Rattus norvegicus [2], 4 mg/kg; in the data set filed under Rattus norvegicus [3] it was 0.08 mg/kg; in the data set listed under Rattus norvegicus [4] it was 0.43 mg/kg. Besides, the half-life in data set [8] was 4 h; in [9], 18 h; in data set [10], 34 h. Also, the inhibition in vivo at 2 mg/kg in the data set listed under Rattus norvegicus [11] was found to be 100%.
